Experimental findings from article PMC4896931, “The discovery of 2-substituted phenol quinazolines as potent RET kinase inhibitors with improved KDR selectivity” (European Journal of Medicinal Chemistry, 2016) are described below.

The target of one data set is KDR (Homo sapiens, UniProt P35968).
For data set [1], the target named is T1, BaF3 cells expressing KIF5B-RET (Homo sapiens, UniProt P07949+P33176).
T1 sequence (P33176+P07949 with tags, fused parts or gaps): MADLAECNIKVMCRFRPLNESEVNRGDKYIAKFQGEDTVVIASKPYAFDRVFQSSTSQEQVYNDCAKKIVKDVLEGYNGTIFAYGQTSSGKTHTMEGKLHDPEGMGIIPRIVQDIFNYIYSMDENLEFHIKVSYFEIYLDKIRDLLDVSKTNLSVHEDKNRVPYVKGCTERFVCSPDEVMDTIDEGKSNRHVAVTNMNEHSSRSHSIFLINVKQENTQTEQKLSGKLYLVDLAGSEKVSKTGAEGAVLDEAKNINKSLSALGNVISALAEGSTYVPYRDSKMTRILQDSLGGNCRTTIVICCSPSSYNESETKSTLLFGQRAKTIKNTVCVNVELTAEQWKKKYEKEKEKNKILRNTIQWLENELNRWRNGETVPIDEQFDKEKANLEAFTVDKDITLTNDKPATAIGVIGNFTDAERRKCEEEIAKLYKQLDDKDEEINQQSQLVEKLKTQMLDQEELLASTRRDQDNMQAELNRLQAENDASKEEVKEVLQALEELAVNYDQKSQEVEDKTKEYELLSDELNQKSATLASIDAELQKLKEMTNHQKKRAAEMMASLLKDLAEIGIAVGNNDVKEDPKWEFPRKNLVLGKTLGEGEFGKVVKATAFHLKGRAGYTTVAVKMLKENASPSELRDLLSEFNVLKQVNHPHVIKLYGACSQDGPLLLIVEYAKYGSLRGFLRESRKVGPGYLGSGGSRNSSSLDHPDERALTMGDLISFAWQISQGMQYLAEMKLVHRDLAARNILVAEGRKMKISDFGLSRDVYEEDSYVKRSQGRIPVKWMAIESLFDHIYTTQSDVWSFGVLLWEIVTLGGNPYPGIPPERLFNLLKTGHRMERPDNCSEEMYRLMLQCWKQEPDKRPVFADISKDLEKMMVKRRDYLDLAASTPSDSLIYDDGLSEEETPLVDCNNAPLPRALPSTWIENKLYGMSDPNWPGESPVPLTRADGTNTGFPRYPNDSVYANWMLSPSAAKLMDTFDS

A short description of data set [2]: Human hepatocyte stability. The format is in vitro ADME. The settings on record: human hepatocytes.
The next data set is described as follows: in vitro. The settings on record: mouse.
Data set [3] can be described thus: Mouse hepatocyte stability. The settings on record: mouse hepatocytes. Format: in vitro ADME.
A further data set in a line: Aqueous solubility. The format is physicochemical. The settings on record: aqueous medium (not further specified).
The next data set in a line: Caco-2 permeability. The settings on record: human; Caco-2 cells. The format is in vitro ADME. Background: Caco-2 monolayers are a common model of the intestinal barrier.
Data set [4] can be described thus: Mouse pharmacokinetics (intravenous and oral). Format: in vivo, male CD-1 mice. The procedure:
All studies were conducted after review by the Animal Welfare and Ethical Review Body at CRUK:MI and in accordance with the University of Manchester Policy on the use of animals in research. All work was carried out in compliance with the Animals (Scientific Procedures) Act 1986. Pharmacokinetics were studied in male CD-1 mice following single intravenous or oral administration. Blood samples were collected as dried blood spots and assayed following solvent extraction through a phospholipid removal plate followed by LC-MS/MS analysis. The resulting concentration-time data were analysed by non-compartmental methods (PK Solver, Excel Add-In).

[5] abbreviates: non-modified (wild-type, non RET-driven) BaF3 cells.

Where a name gives a salt, the structure may show the parent alone. Where only a bound is given, the exact number is not on record here.

The IC50 is the concentration needed to halve the response being measured. By hepatocyte CLint is commonly meant the rate of metabolic loss divided by the concentration. Lower therefore signals greater metabolic stability. In general, solubility refers to the dissolved amount per volume that the medium holds. A high value points to a readily soluble substance. What is called Papp is the rate of passage across a membrane or cell layer, normalised by area and donor concentration.

Sequence of KDR (P35968 20-1356): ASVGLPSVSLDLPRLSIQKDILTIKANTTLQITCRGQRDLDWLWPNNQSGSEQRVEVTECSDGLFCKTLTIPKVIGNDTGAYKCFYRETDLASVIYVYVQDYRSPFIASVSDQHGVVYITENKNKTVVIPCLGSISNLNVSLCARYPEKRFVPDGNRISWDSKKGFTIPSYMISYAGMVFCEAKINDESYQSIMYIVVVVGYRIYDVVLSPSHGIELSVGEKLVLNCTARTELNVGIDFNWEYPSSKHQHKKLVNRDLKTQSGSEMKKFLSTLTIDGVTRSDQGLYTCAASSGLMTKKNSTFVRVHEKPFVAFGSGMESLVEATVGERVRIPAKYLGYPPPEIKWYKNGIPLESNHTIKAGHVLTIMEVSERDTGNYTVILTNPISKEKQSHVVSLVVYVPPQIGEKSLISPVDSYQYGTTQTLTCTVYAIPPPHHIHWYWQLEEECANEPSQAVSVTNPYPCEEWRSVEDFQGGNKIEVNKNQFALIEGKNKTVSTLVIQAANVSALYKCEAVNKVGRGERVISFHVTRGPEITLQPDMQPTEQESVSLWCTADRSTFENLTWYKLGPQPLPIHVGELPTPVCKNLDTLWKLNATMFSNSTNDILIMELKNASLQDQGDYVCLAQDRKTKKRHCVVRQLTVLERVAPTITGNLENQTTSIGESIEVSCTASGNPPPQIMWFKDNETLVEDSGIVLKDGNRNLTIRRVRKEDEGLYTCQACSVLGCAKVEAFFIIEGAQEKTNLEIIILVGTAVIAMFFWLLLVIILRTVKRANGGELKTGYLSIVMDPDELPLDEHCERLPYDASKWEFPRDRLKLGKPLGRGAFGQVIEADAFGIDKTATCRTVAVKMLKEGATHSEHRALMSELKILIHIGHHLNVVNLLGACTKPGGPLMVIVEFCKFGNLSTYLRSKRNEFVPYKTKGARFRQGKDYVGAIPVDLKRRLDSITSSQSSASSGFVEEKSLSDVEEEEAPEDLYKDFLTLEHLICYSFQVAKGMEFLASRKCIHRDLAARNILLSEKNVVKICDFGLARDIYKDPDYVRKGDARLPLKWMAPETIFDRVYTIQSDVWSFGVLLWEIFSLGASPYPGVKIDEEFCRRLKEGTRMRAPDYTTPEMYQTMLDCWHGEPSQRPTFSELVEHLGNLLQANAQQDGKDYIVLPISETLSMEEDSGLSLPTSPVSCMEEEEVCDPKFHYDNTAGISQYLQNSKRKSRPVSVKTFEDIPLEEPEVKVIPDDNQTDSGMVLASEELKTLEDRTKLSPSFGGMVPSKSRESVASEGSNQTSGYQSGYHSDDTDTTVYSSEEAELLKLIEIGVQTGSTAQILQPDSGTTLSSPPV

For `COc1cc2ncnc(Nc3ccc(Br)cc3F)c2cc1OC` [Compound 4], the IC50 against KDR was determined as 460 nM; in data set [1], 1700 nM.
Compound `COc1cc2ncnc(Nc3cccc(O)c3)c2cc1OC` [Compound 6] yielded a hepatocyte CLint in data set [2] of 76.9 µL/min/1e6 cells. Further, the half-maximal inhibitory concentration (IC50) at 48 h in “in vitro” (setting [5]) was more than 10000 nM.
At KDR, `COc1cc2ncnc(Nc3ccc(O)cc3)c2cc1OC` [Compound 7] had an IC50 of 2800 nM.
Still for that read-out and setting: with `COc1cc2ncnc(Nc3cccc(N)c3)c2cc1OC` [Compound 8] the figure was 7600 nM; with `COc1cccc(Nc2ncnc3cc(OC)c(OC)cc23)c1` [Compound 9], 4800 nM.
Compound `COc1cc2ncnc(Nc3cccc(O)c3O)c2cc1OC` [Compound 10, 3-((6,7-Dimethoxyquinazolin-4-yl)amino)benzene-1,2-diol hydrochloride] yielded a hepatocyte CLint in data set [2] of 95.5 µL/min/1e6 cells. For the same compound, in “in vitro” (setting [5]), the IC50 at 48 h was more than 10000 nM.
Turning to `COc1cc2ncnc(Nc3cccc(O)c3Br)c2cc1OC` [Compound 11, 2-Bromo-3-((6,7-dimethoxyquinazolin-4-yl)amino)phenol hydrochloride], the hepatocyte CLint in data set [2] was determined as 157 µL/min/1e6 cells. The compound also had an IC50 at 48 h in the data set “in vitro” (setting [5]) of more than 10000 nM.
`COc1cc2ncnc(Nc3cccc(O)c3Cl)c2cc1OC` [Compound 12, 2-Chloro-3-((6,7-dimethoxyquinazolin-4-yl)amino)phenol hydrochloride]: in data set [2], the hepatocyte CLint turned out to be 174 µL/min/1e6 cells. Also, the IC50 at 48 h in “in vitro” was more than 10000 nM.
The compound `COc1cc2ncnc(Nc3cccc(O)c3C)c2cc1OC` [Compound 13, 3-((6,7-Dimethoxyquinazolin-4-yl)amino)-2-methylphenol hydrochloride] displayed a hepatocyte CLint in data set [2] of 28.4 µL/min/1e6 cells. In “in vitro”, this compound gave a half-inhibitory concentration (IC50) at 48 h of more than 10000 nM.
Consider `COc1cc2ncnc(Nc3cccc(O)c3F)c2cc1OC` [Compound 14, 3-((6,7-Dimethoxyquinazolin-4-yl)amino)-2-fluorophenol], for which the IC50 against KDR worked out at 280 nM.
As for `COc1cc2ncnc(Nc3cccc(O)c3OC)c2cc1OC` [Compound 15, 3-((6,7-Dimethoxyquinazolin-4-yl)amino)-2-methoxyphenol], the IC50 at KDR is more than 10000 nM.
`COc1cc2ncnc(Nc3cccc(O)c3C(F)(F)F)c2cc1OC` [Compound 17, 3-((6,7-Dimethoxyquinazolin-4-yl)amino)-2-(trifluoromethyl)phenol] gave an IC50 against KDR of more than 10000 nM.
Still for that read-out and setting: with `COc1cc2ncnc(Nc3cccc(O)c3C#N)c2cc1OC` [Compound 18, 2-((6,7-Dimethoxyquinazolin-4-yl)amino)-6-hydroxybenzonitrile] the figure was more than 10000 nM.
Consider `COc1cc2ncnc(Nc3ccc(C)c(O)c3)c2cc1OC` [Compound 20], for which the results for the IC50 (against KDR; in data set [1]) were 18 nM and 500 nM, respectively.
For the compound `COc1cc2ncnc(Nc3ccc(Cl)c(O)c3)c2cc1OC` [Compound 21], the results for the IC50 (against KDR; in data set [1]) were 58 nM and 940 nM, respectively.
Consider `COc1cc2ncnc(Nc3cc(O)ccc3F)c2cc1OC` [Compound 25], for which the IC50 against KDR was 20 nM; in data set [1], 53 nM.
In the case of `COc1cc2ncnc(Nc3cc(O)ccc3Cl)c2cc1OC` [Compound 26, 4-Chloro-3-((6,7-dimethoxyquinazolin-4-yl)amino)phenol], the IC50 came to 71 nM against KDR and 85 nM in data set [1].
On the same counts, the results for `COc1cc2ncnc(Nc3cc(O)c(F)cc3F)c2cc1OC` [Compound 28] are 9.5 nM and 53 nM.
In data set [2], `COc1cc2ncnc(Nc3cc(O)c(C)cc3F)c2cc1OC` [Compound 30] gave a hepatocyte CLint of 91.9 µL/min/1e6 cells. Moreover, the IC50 stood at 2.3 nM against KDR and 41 nM in data set [1]. In the data set “in vitro” (setting [5]), this compound had an IC50 at 48 h of more than 1000 nM.
As to `COc1cc2ncnc(Nc3c(F)ccc(O)c3F)c2cc1OC` [Compound 33, 3-((6,7-Dimethoxyquinazolin-4-yl)amino)-2,4-difluorophenol], the hepatocyte CLint in data set [2] is 68.9 µL/min/1e6 cells. Besides, the IC50 was found to be 69 nM on KDR and 120 nM in data set [1]. The compound further yielded an IC50 at 48 h in the data set “in vitro” (setting [5]) of more than 10000 nM.
In turn, `COc1cc2ncnc(Nc3c(Cl)ccc(O)c3F)c2cc1OC` [Compound 34, 4-Chloro-3-((6,7-dimethoxyquinazolin-4-yl)amino)-2-fluorophenol] had a hepatocyte CLint in data set [2] of 93.3 µL/min/1e6 cells. Also, in the data set “in vitro”, the IC50 at 48 h was more than 10000 nM.
`COc1cc2ncnc(Nc3cc(F)cc(O)c3C)c2cc1OC` [Compound 35, 3-((6,7-Dimethoxyquinazolin-4-yl)amino)-5-fluoro-2-methylphenol hydrochloride] registered a hepatocyte CLint in data set [2] of 54.8 µL/min/1e6 cells. The same compound displayed an IC50 at 48 h in the data set “in vitro” (setting [5]) of more than 10000 nM.
With `COc1cc2ncnc(Nc3c(F)ccc(O)c3C)c2cc1OC` [Compound 36, 3-((6,7-Dimethoxyquinazolin-4-yl)amino)-4-fluoro-2-methylphenol hydrochloride], in data set [2], the hepatocyte CLint is 20.9 µL/min/1e6 cells. For the same compound, the hepatocyte CLint in data set [3] turned out to be 38.1 µL/min/1e6 cells. Besides, in the data set “Aqueous solubility”, the solubility is more than 100 µM. In the data set “Caco-2 permeability”, this compound showed a Papp of 8.2 ×10⁻⁶ cm/s. In data set [4] (intravenous), this compound returned a Total blood clearance of less than 10 % LBF. Further, in data set [4] (oral), the Oral half-life result is “approximately 2 h” and the bioavailability entry is on record as “approximately 35%”.
Regarding `COc1cc2ncnc(Nc3c(Cl)ccc(O)c3C)c2cc1OC` [Compound 37, 4-Chloro-3-((6,7-dimethoxyquinazolin-4-yl)amino)-2-methylphenol], the IC50 was more than 10000 nM against KDR and 3600 nM in data set [1].
For `COc1cc2ncnc(Nc3c(Cl)ccc(O)c3Cl)c2cc1OC` [Compound 39, 2,4-Dichloro-3-((6,7-dimethoxyquinazolin-4-yl)amino)phenol], on KDR, the IC50 is 1400 nM.
In data set [2], `COc1cc2ncnc(Nc3c(F)ccc(O)c3Cl)c2cc1OC` [Compound 40, 2-Chloro-3-((6,7-dimethoxyquinazolin-4-yl)amino)-4-fluorophenol] returned a hepatocyte CLint of 66.7 µL/min/1e6 cells. The IC50 on KDR was determined as 1100 nM. The compound also displayed an IC50 at 48 h in “in vitro” of more than 10000 nM.
With `COc1cc2ncnc(Oc3cccc(O)c3)c2cc1OC` [Compound 42, 3-((6,7-Dimethoxyquinazolin-4-yl)oxy)phenol], the IC50 was determined as 150 nM against KDR and 620 nM in data set [1].
